Tests used:
Assay in all cases: relative viability (nuclei count vs DMSO), 5 days (fraction); higher = more cells survive
NCI-H1563 = tested on: NCI-H1563
Outline: (§1)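 Each reported value is a median over duplicate plates. It expresses relative viability: treated-well nuclei count divided by vehicle-well nuclei count. Lung cancer cell lines in 1536-well plates were dosed by pin tool a day after seeding, alone with one drug or with a fixed anchor-drug dose plus five library-drug doses (not always all listed) in √10 steps, and nuclei were counted after 5 days.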

NCI-H1623 = tested on: NCI-H1623
Outline: as §1

NCI-H1648 = tested on: NCI-H1648
Outline: as §1

NCI-H2342 = tested on: NCI-H2342
Outline: as §1

NCI-H522 = tested on: NCI-H522
Outline: as §1

SW 900 = tested on: SW 900
Outline: as §1

A549 = tested on: A549
Outline: as §1

Calu-6 = tested on: Calu-6
Outline: as §1

EBC-1 = tested on: EBC-1
Outline: as §1

IA-LM = tested on: IA-LM
Outline: as §1

NCI-H1299 = tested on: NCI-H1299
Outline: as §1

NCI-H1703 = tested on: NCI-H1703
Outline: as §1

Compound O=c1[nH]c2ccccc2n1C1CCN(CCCC(c2ccc(F)cc2)c2ccc(F)cc2)CC1 [Pimozide] + COc1cccc2cc(-c3nc([C@H]4CC[C@H](C(=O)O)CC4)n4ncnc(N)c34)[nH]c12 [OSI-027] (partner 0.5 µM) has a relative viability (NCI-H1563; first compound 0.08 µM) of 0.75, a relative viability (NCI-H1563; first compound 0.253 µM) of 0.767 and a relative viability (NCI-H1563; first compound 0.8 µM) of 0.817. For the same compound, the relative viability (NCI-H1563; first compound 2.53 µM) was 0.664, the relative viability (NCI-H1563; first compound 8 µM) was 0.719 and the relative viability (NCI-H1623; first compound 0.08 µM) was 0.348. For the same compound, the relative viability (NCI-H1623; first compound 0.253 µM) was 0.48, the relative viability (NCI-H1623; first compound 0.8 µM) was 0.374 and the relative viability (NCI-H1623; first compound 2.53 µM) was 0.416. The relative viability (NCI-H1623; first compound 8 µM) was 0.389, the relative viability (NCI-H1648; first compound 0.08 µM) was 0.275 and the relative viability (NCI-H1648; first compound 0.253 µM) was 0.264. The relative viability (NCI-H1648; first compound 0.8 µM) was 0.272, the relative viability (NCI-H1648; first compound 8 µM) was 0.279 and the relative viability (NCI-H2342; first compound 0.08 µM) was 0.63. The relative viability (NCI-H2342; first compound 0.253 µM) was 0.623, the relative viability (NCI-H2342; first compound 0.8 µM) was 0.615 and the relative viability (NCI-H2342; first compound 2.53 µM) was 0.543. The relative viability (NCI-H2342; first compound 8 µM) was 0.599, the relative viability (NCI-H522; first compound 0.08 µM) was 0.682 and the relative viability (NCI-H522; first compound 0.253 µM) was 0.586. For the same compound, the relative viability (NCI-H522; first compound 0.8 µM) was 0.54, the relative viability (NCI-H522; first compound 2.53 µM) was 0.829 and the relative viability (NCI-H522; first compound 8 µM) was 0.682. The relative viability (SW 900; first compound 0.08 µM) was 0.879, the relative viability (SW 900; first compound 0.253 µM) was 0.581 and the relative viability (SW 900; first compound 0.8 µM) was 0.273. The relative viability (SW 900; first compound 2.53 µM) was 0.475 and the relative viability (SW 900; first compound 8 µM) was 0.384.
Cc1cnc(-c2cnc(NCCNc3ccc(C#N)cn3)nc2-c2ccc(Cl)cc2Cl)[nH]1 + COc1cc2c(Oc3ccc(NC(=O)C4(C(=O)Nc5ccc(F)cc5)CC4)cc3F)ccnc2cc1OCCCN1CCOCC1 [Foretinib] (partner 0.25 µM) showed a relative viability (A549; first compound 0.08 µM) of 0.984, a relative viability (A549; first compound 0.253 µM) of 0.963 and a relative viability (A549; first compound 0.8 µM) of 1.02. For the same compound, the relative viability (A549; first compound 2.53 µM) was 0.451, the relative viability (Calu-6; first compound 0.08 µM) was 0.906 and the relative viability (Calu-6; first compound 0.253 µM) was 0.826. It also gave a relative viability (Calu-6; first compound 0.8 µM) of 0.874, a relative viability (Calu-6; first compound 2.53 µM) of 0.784 and a relative viability (EBC-1; first compound 0.08 µM) of 0.0986. For the same compound, the relative viability (EBC-1; first compound 0.253 µM) was 0.105, the relative viability (EBC-1; first compound 0.8 µM) was 0.102 and the relative viability (EBC-1; first compound 2.53 µM) was 0.112. It also gave a relative viability (IA-LM; first compound 0.08 µM) of 0.95, a relative viability (IA-LM; first compound 0.253 µM) of 1.09 and a relative viability (IA-LM; first compound 0.8 µM) of 1.44. The relative viability (IA-LM; first compound 2.53 µM) was 0.988, the relative viability (NCI-H1299; first compound 0.08 µM) was 1.11 and the relative viability (NCI-H1299; first compound 0.253 µM) was 1.05. It also gave a relative viability (NCI-H1299; first compound 0.8 µM) of 1.09, a relative viability (NCI-H1299; first compound 2.53 µM) of 1.06 and a relative viability (NCI-H1563; first compound 0.08 µM) of 0.925. It also gave a relative viability (NCI-H1563; first compound 0.253 µM) of 0.885, a relative viability (NCI-H1563; first compound 0.8 µM) of 0.951 and a relative viability (NCI-H1563; first compound 2.53 µM) of 1.01. For the same compound, the relative viability (NCI-H1623; first compound 0.08 µM) was 0.785, the relative viability (NCI-H1623; first compound 0.253 µM) was 0.828 and the relative viability (NCI-H1623; first compound 0.8 µM) was 0.821. It also gave a relative viability (NCI-H1623; first compound 2.53 µM) of 0.849, a relative viability (NCI-H1703; first compound 0.08 µM) of 0.333 and a relative viability (NCI-H1703; first compound 0.253 µM) of 0.383. It also gave a relative viability (NCI-H1703; first compound 0.8 µM) of 0.362, a relative viability (NCI-H1703; first compound 2.53 µM) of 0.433 and a relative viability (NCI-H2342; first compound 0.08 µM) of 0.974. For the same compound, the relative viability (NCI-H2342; first compound 0.253 µM) was 0.903, the relative viability (NCI-H2342; first compound 0.8 µM) was 1.03 and the relative viability (NCI-H2342; first compound 2.53 µM) was 1.07. It also gave a relative viability (SW 900; first compound 0.08 µM) of 0.781, a relative viability (SW 900; first compound 0.253 µM) of 0.78 and a relative viability (SW 900; first compound 0.8 µM) of 0.789. For the same compound, the relative viability (SW 900; first compound 2.53 µM) was 0.717.
Cc1cnc(-c2cnc(NCCNc3ccc(C#N)cn3)nc2-c2ccc(Cl)cc2Cl)[nH]1 + Cc1cc(Nc2cc(N3CCN(C)CC3)nc(Sc3ccc(NC(=O)C4CC4)cc3)n2)n[nH]1 [Tozasertib] (partner 0.1 µM) was tested, and the relative viability (NCI-H1623; first compound 0.08 µM) was 0.477, the relative viability (NCI-H1623; first compound 0.253 µM) was 0.426 and the relative viability (NCI-H1623; first compound 0.8 µM) was 0.414. The relative viability (NCI-H1623; first compound 2.53 µM) was 0.417, the relative viability (NCI-H1648; first compound 0.08 µM) was 0.487 and the relative viability (NCI-H1648; first compound 0.253 µM) was 0.502. It also gave a relative viability (NCI-H1648; first compound 0.8 µM) of 0.465, a relative viability (NCI-H1648; first compound 2.53 µM) of 0.52 and a relative viability (NCI-H2342; first compound 0.08 µM) of 0.519. For the same compound, the relative viability (NCI-H2342; first compound 0.253 µM) was 0.513, the relative viability (NCI-H2342; first compound 0.8 µM) was 0.507 and the relative viability (NCI-H2342; first compound 2.53 µM) was 0.505. It also gave a relative viability (NCI-H522; first compound 0.08 µM) of 0.629, a relative viability (NCI-H522; first compound 0.8 µM) of 0.506 and a relative viability (NCI-H522; first compound 2.53 µM) of 0.591. It also gave a relative viability (SW 900; first compound 0.08 µM) of 0.667, a relative viability (SW 900; first compound 0.253 µM) of 0.511 and a relative viability (SW 900; first compound 0.8 µM) of 0.439. The relative viability (SW 900; first compound 2.53 µM) was 0.415.

Source: the supplement of paper PMC10307832
